PubChem BioAssay (NCI)
Several values for one entry are separate records, joined by “and”; a condition that tells them apart may be missing. Identical values can stand only once.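 Briefly, cells in 96-well plates were exposed to five compound concentrations for 48 h, and endpoints were estimated by linear interpolation. Abbreviation: GI50, concentration required for 50% inhibition of growth. TGI is the concentration that stops growth completely.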

The compounds below were run on MDA-MB-468 breast (assay: NCI tumour cell line growth inhibition, 48 h).

| Structure (SMILES) | GI50 | TGI |
| --- | --- | --- |
| COc1cc(/C=C2\CN(S(=O)(=O)c3ccc(C)cc3)C/C(=C\c3cc(CN4CCOCC4)c(O)c(OC)c3)C2=O)cc(CN2CCOCC2)c1O | 4050 nM | > 100000 nM |
| Nc1ncc(-c2ccc3ncnc(N4CCc5ccc(Cl)cc54)c3c2)cn1 | 479 nM | 2080 nM |
| CS(=O)(=O)Nc1cc(-c2ccc3ncc(C#N)c(Nc4cccc(Cl)c4F)c3c2)cnc1Cl | 116 nM | 1390 nM |
| CCN(Cc1ccccc1F)c1ccc(CO)c(Cl)c1 |  | 13 nM |
| CS(=O)(=O)c1ccc(Oc2cc(F)cc(C#N)c2)c2c1[C@H](O)[C@H](F)[C@H]2F | > 100000 nM | > 100000 nM |
| COC1C(O)CC(OC2CC(OC3CC(O[C@@H]4C(=O)c5c(cc6cc(OC7CC(OC8CC(O)C(O)C(C)O8)C(O)C(C)O7)c(C)c(O)c6c5O)CC4[C@H](OC)C(=O)C(C)=O)OC(C)C3O)OC(C)C2O)OC1C (stereo not given in full) | 16.1 nM | 52.1 nM |
| OCCCc1n(Cc2ccc3ccccc3c2)c2ccccc2[n+]1Cc1ccc2ccccc2c1 | 291 nM | 1370 nM |
| Cc1ccc(/C=C2\COc3ccc(O)c(O)c3C2=O)cc1 | 907 nM | 2990 nM |
| C#CCN(C)CCCOc1ccc(NC(=O)CCCCCCC(=O)NO)cc1Cl | 853 nM | 4980 nM |
| Cc1ccc2c(n1)C(=O)C(Cl)=C(Nc1cccc(C)c1C)C2=O | 1530 nM | 3250 nM |
| O=C(CI)OCC(COC(=O)CI)OC(=O)CI | 2340 nM | 7910 nM |
| CC12OC(CC(O)C1O)n1c3ccccc3c3c4c(c5c6ccccc6n2c5c31)C(=O)N(CCN1CCCC1)C4=O (stereo not given) | 1000 nM | 3110 nM |
| Nc1ccn(C2OC(CO)C(O)C2(F)F)c(=O)n1 (stereo not given) | 18 nM | 55.8 nM |
| COc1ccc(C(=O)/C=C/c2c(OC)cc(OC)cc2OC)c(OC)c1 | 1590 nM | 4660 nM |
| CCOC(=O)c1ccc2c(c1)nc(-c1ccc(Cl)cc1)n2-c1cc(C(C)(C)C)[nH]n1 | 2120 nM | 8180 nM |
| CC(=O)OC[C@H]1OC(O)C=C[C@@H]1OC(C)=O (stereo not given in full) | 82500 nM | 180000 nM |
| CCN(CC)c1ccc(C2=NN(C(C)=O)C(c3cc(OC)c(OC)c(OC)c3)C2)cc1 (stereo not given) | 256 nM | 4100 nM |
| COc1cccc(C(=O)c2sc(Nc3ccc(N4CCN(C(C)C)CC4)cc3)nc2N)c1 | 1620 nM | 9220 nM |

| Structure (SMILES) | GI50 | TGI |
| --- | --- | --- |
| Cc1ccc(C(=Nc2ccccc2)N=P(c2ccccc2)(c2ccccc2)c2ccccc2)cc1 | 944 nM | 4300 nM |
| CCOC(=O)C1=C(C)N=C2SC=C(c3ccccc3)N2[C@H]1c1cn[nH]c1-c1ccc(Cl)cc1 | 3540 nM | 16600 nM |
| COc1ccc(O)c2c(=O)c3c(OC)cc4c(c3oc12)[C@@H]1C=CO[C@@H]1O4 | 131 nM | 447 nM |
| OCc1cn(Cc2ccc(Cl)cc2)c2ccccc12 | < 10 nM |  |
| CC(C)Cc1ccc(C(C)C(=O)NCc2ccc(Cn3c(=O)sn(CCCCl)c3=O)cc2)cc1 (stereo not given) | 1350 nM | 3010 nM |
| COc1ccc(-c2nn(C(=O)NCCN(C)C)cc2-c2ccncc2)cc1Cl | 1950 nM | 11700 nM |
| Cc1nc2ccc(Nc3nc(Cl)nc(Nc4ccc(F)cc4)n3)cc2n1Cc1ccccc1 | 1860 nM | 3780 nM |
| COc1ccc([As]=[As]c2ccc(OC)c(NCS(=O)(=O)O)c2)cc1NCS(=O)(=O)O (stereo not given) | 1290 nM | 3060 nM |
| CS(=O)(=O)Nc1ccc(Nc2c3ccccc3nc3cc([N+](=O)[O-])ccc23)cc1 | 304 nM | 2020 nM |
| Fc1ccc(-c2nc(C(Cl)Cl)nc3cc(-c4ccccc4)nn23)cc1 | 2140 nM | 4950 nM |
| COc1ccc(-c2cc(=O)oc3ccc(Cl)cc23)cc1F | 110 nM and 29.5 nM | 644 nM and 97.9 nM |
| CC(C)Sc1nc(Nc2ccc(S(N)(=O)=O)cc2)c(C#N)c(-c2ccc(F)cc2)n1 | 4590 nM | 18000 nM |
| O=C1c2ccccc2C(=O)c2c(Nc3ccc(CCO)cc3)ccc(O)c21 | 1430 nM | 22800 nM |
| O=C1Nc2ccccc2/C1=C/C(=O)c1ccc(N2CCCC2)cc1 | 1960 nM | 6590 nM |
| Cc1ccc(C(=O)Nc2ccc(CNCCN3CCOCC3)c(C(F)(F)F)c2)cc1C#Cc1cnc2cccnn12 | 2150 nM | 6190 nM |
| CCN(Cc1cccnc1)c1ccc(CO)c(Cl)c1 | 29 nM | 104 nM |
| COc1cc2cc(c1Cl)N(C)C(=O)C[C@H](OC(=O)[C@H](C)N(C)C(=O)CCS)C[C@]1(C)O[C@H]1[C@H](C)[C@@H]1C[C@@](O)(NC(=O)O1)[C@H](OC)/C=C/C=C(\C)C2 | < 5 nM | < 5 nM |
| C/C(=N\NC(=O)c1ccc(C(C)(C)C)cc1)c1ccc(O)cc1O | 1020 nM | 5100 nM |
